# Source: article PMC4392179 (Nature medicine, 2015)
# Assays:
# [1] = molecular target: T1, AIM2 inflammasome (Mus musculus, UniProt Q91VJ1); assay: AIM2 inflammasome activation: BMDM stimulated with LPS and transfected Poly; format: cell-based
# T1 sequence (Q91VJ1 1-354): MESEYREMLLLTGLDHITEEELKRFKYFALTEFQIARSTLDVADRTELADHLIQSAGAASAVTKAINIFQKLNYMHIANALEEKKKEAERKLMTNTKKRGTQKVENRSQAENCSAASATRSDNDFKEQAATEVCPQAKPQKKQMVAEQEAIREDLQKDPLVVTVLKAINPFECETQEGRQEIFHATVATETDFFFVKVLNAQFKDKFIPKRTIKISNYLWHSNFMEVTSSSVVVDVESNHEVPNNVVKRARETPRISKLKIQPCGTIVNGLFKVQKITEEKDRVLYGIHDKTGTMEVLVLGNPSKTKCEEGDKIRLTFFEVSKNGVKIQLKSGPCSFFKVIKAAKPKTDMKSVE
# [2] = Aqueous solubility; format: physicochemical; conditions: sodium salt
# [3] = molecular target: NLRC4 (Mus musculus, UniProt Q3UP24); assay: NLRC4 inflammasome activation: BMDM stimulated with LPS and S. typhimurium; format: cell-based; conditions: for NLRC4-stimulated IL-1β secretion / NLRC4-stimulated TNF-α secretion / expression of pro-IL-1β (and pro-caspase-1) in cell lysates: LPS and S. typhimurium; for NLRC4-stimulated IL-1β secretion / NLRC4-stimulated TNF-α secretion: MCC950 up to 10 µM, parthenolide 10 µM
# [4] = test system: TLR signalling; assay: Priming / TLR signalling: BMDM pre-treated and stimulated with LPS or Poly; format: cell-based, mouse; conditions: for LPS-induced (TLR4) TNF-α secretion / Poly(A:U)-induced (TLR3) TNF-α secretion: BMDM, ELISA
# [5] = molecular target: CYP 2C19 (Homo sapiens, UniProt P33261); assay: CYP inhibition in human liver microsomes, substrate cocktail; conditions: 10 µM
# [6] = molecular target: CYP 2D6 (Homo sapiens, UniProt P10635); assay: as above; conditions: 10 µM
# [7] = Stability with mouse liver microsomes
# [8] = test system: EAE; assay: Experimental autoimmune encephalomyelitis; format: in vivo, C57BL/6 mice
# [9] = test system: K+ efflux; assay: Intracellular K+ by ICP-OES in BMDM; format: cell-based, mouse; conditions: LPS primed BMDM, MCC950 10–300 nM
# [10] = test system: NLRP1; format: cell-based
# [11] = test system: Ca2+ flux; assay: ATP induced Ca2+ flux in BMDM; conditions: WT or Ice−/− BMDM
# [12] = Stability with human liver microsomes
# [13] = molecular target: CYP 3A4 (Homo sapiens, UniProt P08684); assay: CYP inhibition in human liver microsomes, substrate cocktail; conditions: 10 µM
# [14] = molecular target: CYP 2C9 (Homo sapiens, UniProt P11712); assay: as above; conditions: 10 µM
# [15] = molecular target: human ether-a-go-go (hERG) potassium channel (Homo sapiens, UniProt Q12809); assay: cell-based
# [16] = molecular target: T2, CYP 1A2 (Homo sapiens, UniProt P05177); assay: CYP inhibition in human liver microsomes, substrate cocktail; conditions: 10 µM
# T2 sequence (P05177 1-516): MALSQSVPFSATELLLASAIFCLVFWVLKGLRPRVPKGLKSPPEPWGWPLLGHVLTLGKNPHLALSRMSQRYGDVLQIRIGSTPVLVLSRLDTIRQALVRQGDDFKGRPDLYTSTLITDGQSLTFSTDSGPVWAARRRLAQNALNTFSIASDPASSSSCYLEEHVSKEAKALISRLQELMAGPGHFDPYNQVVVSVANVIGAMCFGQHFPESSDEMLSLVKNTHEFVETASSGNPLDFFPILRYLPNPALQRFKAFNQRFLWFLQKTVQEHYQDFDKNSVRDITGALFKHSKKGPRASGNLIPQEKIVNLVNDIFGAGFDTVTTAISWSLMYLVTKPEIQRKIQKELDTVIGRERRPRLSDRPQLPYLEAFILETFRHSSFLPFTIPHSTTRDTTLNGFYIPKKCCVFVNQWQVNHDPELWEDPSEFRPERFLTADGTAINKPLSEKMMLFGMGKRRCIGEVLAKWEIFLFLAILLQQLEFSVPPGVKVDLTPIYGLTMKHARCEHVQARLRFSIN
# [17] = test system: NLRP1; assay: Nlrp1a Q593P activating mutation mice; format: in vivo; conditions: NLRP1 mutant mice, 20 mg/kg i.p. every second day for 9 days; P = 0.7
# [18] = LPS and Poly(dA:dT), Bayer compound 40 µM
# Sequence of NLRC4 (Q3UP24 whole entry): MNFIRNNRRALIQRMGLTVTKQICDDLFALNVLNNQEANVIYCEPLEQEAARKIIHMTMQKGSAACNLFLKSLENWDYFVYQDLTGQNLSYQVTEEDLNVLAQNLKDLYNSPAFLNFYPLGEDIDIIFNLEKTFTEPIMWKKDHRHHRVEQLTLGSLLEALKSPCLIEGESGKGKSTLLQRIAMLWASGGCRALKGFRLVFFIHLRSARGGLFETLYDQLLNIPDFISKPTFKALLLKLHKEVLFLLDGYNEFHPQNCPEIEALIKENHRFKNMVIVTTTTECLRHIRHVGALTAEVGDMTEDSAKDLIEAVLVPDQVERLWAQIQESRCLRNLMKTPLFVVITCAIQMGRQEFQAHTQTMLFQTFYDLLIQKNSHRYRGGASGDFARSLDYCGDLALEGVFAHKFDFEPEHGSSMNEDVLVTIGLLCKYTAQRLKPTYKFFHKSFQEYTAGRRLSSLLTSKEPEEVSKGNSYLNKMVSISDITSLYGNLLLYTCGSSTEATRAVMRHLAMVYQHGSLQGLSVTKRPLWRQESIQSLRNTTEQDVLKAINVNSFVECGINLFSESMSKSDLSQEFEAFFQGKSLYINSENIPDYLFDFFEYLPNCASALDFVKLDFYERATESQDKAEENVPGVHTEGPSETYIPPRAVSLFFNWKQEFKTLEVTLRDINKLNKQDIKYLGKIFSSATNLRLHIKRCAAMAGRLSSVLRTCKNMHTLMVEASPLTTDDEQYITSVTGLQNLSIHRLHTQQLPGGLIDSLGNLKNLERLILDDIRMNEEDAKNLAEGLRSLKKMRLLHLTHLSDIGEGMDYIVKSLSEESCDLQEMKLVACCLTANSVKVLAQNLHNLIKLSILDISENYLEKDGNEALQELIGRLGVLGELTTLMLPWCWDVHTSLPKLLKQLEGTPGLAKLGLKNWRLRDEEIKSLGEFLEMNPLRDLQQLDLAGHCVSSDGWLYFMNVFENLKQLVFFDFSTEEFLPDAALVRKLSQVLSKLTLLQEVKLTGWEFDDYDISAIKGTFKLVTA
# Sequence of CYP 2D6 (P10635 whole entry): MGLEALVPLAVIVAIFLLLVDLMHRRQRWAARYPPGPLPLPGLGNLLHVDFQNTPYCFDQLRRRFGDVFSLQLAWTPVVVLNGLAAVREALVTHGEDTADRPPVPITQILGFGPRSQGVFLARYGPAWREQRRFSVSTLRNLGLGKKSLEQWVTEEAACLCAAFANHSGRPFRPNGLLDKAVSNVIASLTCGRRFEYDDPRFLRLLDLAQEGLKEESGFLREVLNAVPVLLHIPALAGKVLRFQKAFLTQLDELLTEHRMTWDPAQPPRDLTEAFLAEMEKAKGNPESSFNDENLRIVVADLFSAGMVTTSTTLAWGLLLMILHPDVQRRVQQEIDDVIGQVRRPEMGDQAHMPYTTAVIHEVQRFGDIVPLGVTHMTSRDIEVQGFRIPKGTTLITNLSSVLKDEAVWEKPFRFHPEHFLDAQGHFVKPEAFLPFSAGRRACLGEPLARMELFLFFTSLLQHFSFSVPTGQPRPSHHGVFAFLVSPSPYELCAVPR
# Sequence of CYP 2C19 (P33261 whole entry): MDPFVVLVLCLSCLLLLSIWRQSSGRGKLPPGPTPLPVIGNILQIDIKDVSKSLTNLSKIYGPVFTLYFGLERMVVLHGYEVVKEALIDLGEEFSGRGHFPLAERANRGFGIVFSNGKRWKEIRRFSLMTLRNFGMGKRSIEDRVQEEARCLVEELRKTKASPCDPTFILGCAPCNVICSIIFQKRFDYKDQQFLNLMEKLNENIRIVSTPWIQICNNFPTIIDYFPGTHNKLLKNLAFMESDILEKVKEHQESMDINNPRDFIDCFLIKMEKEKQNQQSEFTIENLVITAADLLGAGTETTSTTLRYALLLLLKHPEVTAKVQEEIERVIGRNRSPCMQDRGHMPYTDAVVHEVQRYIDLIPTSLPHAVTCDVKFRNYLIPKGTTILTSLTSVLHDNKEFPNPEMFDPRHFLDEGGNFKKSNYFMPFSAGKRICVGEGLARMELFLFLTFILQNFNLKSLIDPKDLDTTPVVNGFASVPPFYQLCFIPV
# Sequence of human ether-a-go-go (hERG) potassium channel (Q12809 whole entry): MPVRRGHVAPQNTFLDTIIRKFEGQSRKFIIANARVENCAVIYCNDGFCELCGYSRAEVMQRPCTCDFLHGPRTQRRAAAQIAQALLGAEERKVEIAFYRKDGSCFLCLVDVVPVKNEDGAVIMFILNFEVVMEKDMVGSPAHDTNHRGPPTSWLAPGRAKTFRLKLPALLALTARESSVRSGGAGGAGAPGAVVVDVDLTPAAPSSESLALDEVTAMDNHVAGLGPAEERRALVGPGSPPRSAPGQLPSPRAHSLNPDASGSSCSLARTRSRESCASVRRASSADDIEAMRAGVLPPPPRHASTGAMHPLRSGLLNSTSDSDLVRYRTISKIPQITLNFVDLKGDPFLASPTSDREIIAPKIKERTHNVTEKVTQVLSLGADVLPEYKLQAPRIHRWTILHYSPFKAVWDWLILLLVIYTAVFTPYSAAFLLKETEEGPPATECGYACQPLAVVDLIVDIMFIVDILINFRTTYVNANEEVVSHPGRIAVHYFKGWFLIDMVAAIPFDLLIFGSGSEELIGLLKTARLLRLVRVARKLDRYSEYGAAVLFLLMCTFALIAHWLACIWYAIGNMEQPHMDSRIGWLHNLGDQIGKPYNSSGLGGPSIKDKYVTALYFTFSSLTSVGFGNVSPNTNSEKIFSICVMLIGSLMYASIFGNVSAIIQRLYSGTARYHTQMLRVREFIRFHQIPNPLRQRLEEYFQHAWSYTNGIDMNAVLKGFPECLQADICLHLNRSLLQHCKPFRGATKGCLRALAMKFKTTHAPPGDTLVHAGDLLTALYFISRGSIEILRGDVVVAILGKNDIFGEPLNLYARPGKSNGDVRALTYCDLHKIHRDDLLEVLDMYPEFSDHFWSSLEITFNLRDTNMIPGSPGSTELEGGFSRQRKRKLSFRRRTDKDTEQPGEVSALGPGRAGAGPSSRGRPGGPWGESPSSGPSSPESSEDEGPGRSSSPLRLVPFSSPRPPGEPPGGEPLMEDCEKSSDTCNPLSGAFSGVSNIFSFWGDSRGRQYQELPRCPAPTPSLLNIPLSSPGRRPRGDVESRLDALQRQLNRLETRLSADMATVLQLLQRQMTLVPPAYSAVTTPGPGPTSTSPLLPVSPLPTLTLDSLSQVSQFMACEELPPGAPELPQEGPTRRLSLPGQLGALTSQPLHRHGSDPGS
# Sequence of CYP 2C9 (P11712 whole entry): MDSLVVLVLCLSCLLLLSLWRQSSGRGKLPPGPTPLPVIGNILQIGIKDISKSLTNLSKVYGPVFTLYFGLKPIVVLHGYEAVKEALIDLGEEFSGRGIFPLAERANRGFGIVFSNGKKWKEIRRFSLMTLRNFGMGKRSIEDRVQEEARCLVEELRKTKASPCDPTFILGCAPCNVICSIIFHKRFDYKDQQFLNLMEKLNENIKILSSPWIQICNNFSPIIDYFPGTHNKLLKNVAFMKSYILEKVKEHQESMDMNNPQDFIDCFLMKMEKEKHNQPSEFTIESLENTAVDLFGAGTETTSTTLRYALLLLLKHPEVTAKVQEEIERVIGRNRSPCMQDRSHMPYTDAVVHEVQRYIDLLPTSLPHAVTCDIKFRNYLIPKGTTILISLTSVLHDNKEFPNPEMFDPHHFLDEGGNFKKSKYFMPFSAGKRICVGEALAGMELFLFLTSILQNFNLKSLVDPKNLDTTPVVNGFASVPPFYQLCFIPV
# Sequence of CYP 3A4 (P08684 whole entry): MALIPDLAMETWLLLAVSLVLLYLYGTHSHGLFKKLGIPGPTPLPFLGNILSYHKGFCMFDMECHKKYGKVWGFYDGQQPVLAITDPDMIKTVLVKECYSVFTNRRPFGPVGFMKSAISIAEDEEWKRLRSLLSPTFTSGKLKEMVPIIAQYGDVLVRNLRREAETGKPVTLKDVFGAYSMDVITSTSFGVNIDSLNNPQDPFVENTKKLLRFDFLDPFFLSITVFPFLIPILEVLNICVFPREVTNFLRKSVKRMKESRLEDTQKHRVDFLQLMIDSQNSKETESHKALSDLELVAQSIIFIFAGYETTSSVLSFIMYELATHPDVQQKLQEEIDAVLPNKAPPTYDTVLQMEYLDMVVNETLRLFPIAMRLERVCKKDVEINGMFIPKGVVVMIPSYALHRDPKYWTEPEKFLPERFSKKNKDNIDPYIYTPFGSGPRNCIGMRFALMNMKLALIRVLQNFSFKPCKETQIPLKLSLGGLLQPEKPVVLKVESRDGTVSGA
smiles,measurement,setting,value
"O=C(O)c1ccc(OCCCc2ccc(OCCCC3CCCCC3)cc2)c(C(=O)N2CCC(C(=O)O)CC2)c1 [Bayer compound, 1-(5-carboxy-2{3-[4-(3-cyclohexylpropoxy)phenyl]propoxy}benzoyl)piperidine-4-carboxylic acid, reference compound]",IL-1β secretion,[1]; [18],inhibited
same,Poly(dA:dT) stimulated caspase-1 activation,[1]; Western blot,inhibited
CC(C)(O)c1coc(S(=O)(=O)[N-]C(=O)Nc2c3c(cc4c2CCC4)CCC3)c1.[Na+] [MCC950 sodium salt],solubility in aqueous solutions,[2],highly soluble
"C=C1C(=O)O[C@H]2[C@H]1CC/C(C)=C/CC[C@@]1(C)O[C@@H]21 [parthenolide, reference compound]",NLRC4-stimulated IL-1β secretion,[3],attenuated
same,NLRC4-stimulated TNF-α secretion,[3],attenuated
same,expression of pro-IL-1β (and pro-caspase-1) in cell lysates,[3]; Western blot,attenuated
same,LPS-induced (TLR4) TNF-α secretion,[4],abrogated
same,Poly(A:U)-induced (TLR3) TNF-α secretion,[4],abrogated
"CC(C)(O)c1coc(S(=O)(=O)NC(=O)Nc2c3c(cc4c2CCC4)CCC3)c1 [MCC950, 1-(1,2,3,5,6,7-hexahydro-s-indacen-4-yl)-3-[4-(1-hydroxy-1-methyl-ethyl)-furan-2-sulfonyl]urea]",inhibition of CYP 2C19,[5],less than 15%
same,inhibition of CYP 2D6,[6],less than 15%
same,compound remaining after 60 min,[7],more than 70%
same,EAE onset and severity (clinical scores),"[8]; 10 mg/kg i.p. day 0, 1, 2 and every 2 days thereafter",delayed the onset and reduced the severity
same,frequencies of IL-17 and IFN-γ producing CD3+ T cells in brain mononuclear cells,"[8]; day 22, vs PBS-treated mice",modestly reduced
same,"K+ efflux triggered by nigericin, ATP and SiO2",[9],did not prevent
same,IL-1β secretion,[1]; [18],did not attenuate
same,TNF-α secretion,[1]; [18],did not attenuate
same,ASC speck formation,[10],not decreased
same,NLRC4-stimulated IL-1β secretion,[3],not inhibited
same,NLRC4-stimulated TNF-α secretion,[3],not inhibited
same,expression of pro-IL-1β (and pro-caspase-1) in cell lysates,[3]; Western blot,not substantially affected
same,caspase-1 activation / IL-1β processing in response to S. typhimurium,[3]; Western blot,did not inhibit
same,ATP induced increase in intracellular Ca2+,[11],did not substantially affect
same,compound remaining after 60 min,[12],more than 70%
same,inhibition of CYP 3A4,[13],less than 15%
same,inhibition of CYP 2C9,[14],less than 15%
same,IC50,[15],> 30 µM
same,LPS stimulated induction of NLRP3 and pro-IL-1β,"[4]; BMDM pre-treated, LPS 4 h, Western blot",not affected
same,LPS-induced (TLR4) TNF-α secretion,[4],did not affect
same,Poly(A:U)-induced (TLR3) TNF-α secretion,[4],did not affect
same,inhibition of CYP 1A2,[16],less than 15%
same,serum concentrations of IL-18,[17],did not significantly alter
